Drawing on US20090311217A1, “3-SUBSTITUTED-1H-INDOLE COMPOUNDS, THEIR USE AS MTOR KINASE AND PI3 KINASE INHIBITORS, AND THEIR SYNTHESES” (priority 2008, published 2009), this text covers IC50 and melting point for 19 compounds.

For one series, the target named is PI3K-alpha (Homo sapiens, UniProt P42336). Description: PI3K-alpha fluorescence polarization assay. The note with it: read-out: PI3Kα Avg. IC50. The series is classed as biochemical.
For the next series, the target named is PI3K-gamma (Homo sapiens, UniProt P48736). The experiment in a line: PI3K-gamma fluorescence polarization assay. The class given is biochemical. To be noted: PI3Kγ Avg. IC50. The gist of the method: (§1)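 Each isoform (5 ng) phosphorylated 2.5 μM diC8-PI(4,5)P2 at 25 μM ATP for one hour at 25° C in the presence of inhibitor. Reactions were then stopped with EDTA, and product was detected by fluorescence polarization using a GST-GRP1 PH domain and a BODIPY-TMR-labelled IP4 tracer.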
Sequence of PI3K-gamma (P48736 whole entry, species assumed, the tested form may be a part, canonical isoform): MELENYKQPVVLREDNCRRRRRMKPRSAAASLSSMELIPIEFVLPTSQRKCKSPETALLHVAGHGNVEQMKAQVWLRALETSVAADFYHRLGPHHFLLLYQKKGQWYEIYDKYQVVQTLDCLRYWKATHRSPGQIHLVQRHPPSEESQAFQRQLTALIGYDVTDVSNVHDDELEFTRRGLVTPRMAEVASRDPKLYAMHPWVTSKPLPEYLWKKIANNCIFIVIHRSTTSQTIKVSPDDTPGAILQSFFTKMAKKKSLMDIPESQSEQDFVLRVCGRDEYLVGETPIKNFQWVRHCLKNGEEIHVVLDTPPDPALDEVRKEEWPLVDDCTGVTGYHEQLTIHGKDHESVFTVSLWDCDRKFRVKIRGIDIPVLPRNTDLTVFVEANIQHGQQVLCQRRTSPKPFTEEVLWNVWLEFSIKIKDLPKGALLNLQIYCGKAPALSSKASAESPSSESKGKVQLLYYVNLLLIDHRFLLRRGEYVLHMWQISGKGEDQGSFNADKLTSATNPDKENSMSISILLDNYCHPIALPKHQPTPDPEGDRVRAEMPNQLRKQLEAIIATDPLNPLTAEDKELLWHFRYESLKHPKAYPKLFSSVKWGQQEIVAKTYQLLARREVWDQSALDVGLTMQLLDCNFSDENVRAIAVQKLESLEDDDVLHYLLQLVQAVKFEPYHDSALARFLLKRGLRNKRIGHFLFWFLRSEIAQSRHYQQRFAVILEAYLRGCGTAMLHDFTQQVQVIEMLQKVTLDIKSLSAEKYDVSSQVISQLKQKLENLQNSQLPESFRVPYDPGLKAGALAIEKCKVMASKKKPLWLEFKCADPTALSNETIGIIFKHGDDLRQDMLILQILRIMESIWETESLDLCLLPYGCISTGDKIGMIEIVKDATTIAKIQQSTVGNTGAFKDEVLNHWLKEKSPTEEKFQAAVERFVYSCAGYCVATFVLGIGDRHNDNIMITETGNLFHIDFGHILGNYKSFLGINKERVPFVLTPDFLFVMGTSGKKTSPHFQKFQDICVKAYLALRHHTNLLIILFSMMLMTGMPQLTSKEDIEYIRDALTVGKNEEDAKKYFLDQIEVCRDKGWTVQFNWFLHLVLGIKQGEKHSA
(Polarisation of emitted light reports the rotation of a fluorescent probe.)

In the next series the target is T1, human TOR (Homo sapiens, UniProt P42345).
T1 construct: FLAG
Description: mTOR enzyme assay (DELFIA, His6-S6K substrate). To be noted: read-out: mTOR Kinase Avg. IC50. The series is classed as biochemical.

A further series deals with PI3K-beta (Homo sapiens, UniProt P42338). Description: PI3K-beta fluorescence polarization assay. The series is classed as biochemical. To be noted: read-out: PI3Kβ Avg. IC50. The gist of the method:
as §1

The next series has as its target PI3K-delta (Homo sapiens, UniProt O00329). Description: PI3K-delta fluorescence polarization assay. The class given is biochemical. The note with it: read-out: PI3Kδ Avg. IC50.

In general, IC50 refers to the point on the concentration scale where inhibition reaches its midpoint. In general, melting point refers to the temperature, or range, at which the solid turns liquid.

Each structure is given as a SMILES string.

Sequence of PI3K-alpha (P42336 whole entry, species assumed, the tested form may be a part, canonical isoform): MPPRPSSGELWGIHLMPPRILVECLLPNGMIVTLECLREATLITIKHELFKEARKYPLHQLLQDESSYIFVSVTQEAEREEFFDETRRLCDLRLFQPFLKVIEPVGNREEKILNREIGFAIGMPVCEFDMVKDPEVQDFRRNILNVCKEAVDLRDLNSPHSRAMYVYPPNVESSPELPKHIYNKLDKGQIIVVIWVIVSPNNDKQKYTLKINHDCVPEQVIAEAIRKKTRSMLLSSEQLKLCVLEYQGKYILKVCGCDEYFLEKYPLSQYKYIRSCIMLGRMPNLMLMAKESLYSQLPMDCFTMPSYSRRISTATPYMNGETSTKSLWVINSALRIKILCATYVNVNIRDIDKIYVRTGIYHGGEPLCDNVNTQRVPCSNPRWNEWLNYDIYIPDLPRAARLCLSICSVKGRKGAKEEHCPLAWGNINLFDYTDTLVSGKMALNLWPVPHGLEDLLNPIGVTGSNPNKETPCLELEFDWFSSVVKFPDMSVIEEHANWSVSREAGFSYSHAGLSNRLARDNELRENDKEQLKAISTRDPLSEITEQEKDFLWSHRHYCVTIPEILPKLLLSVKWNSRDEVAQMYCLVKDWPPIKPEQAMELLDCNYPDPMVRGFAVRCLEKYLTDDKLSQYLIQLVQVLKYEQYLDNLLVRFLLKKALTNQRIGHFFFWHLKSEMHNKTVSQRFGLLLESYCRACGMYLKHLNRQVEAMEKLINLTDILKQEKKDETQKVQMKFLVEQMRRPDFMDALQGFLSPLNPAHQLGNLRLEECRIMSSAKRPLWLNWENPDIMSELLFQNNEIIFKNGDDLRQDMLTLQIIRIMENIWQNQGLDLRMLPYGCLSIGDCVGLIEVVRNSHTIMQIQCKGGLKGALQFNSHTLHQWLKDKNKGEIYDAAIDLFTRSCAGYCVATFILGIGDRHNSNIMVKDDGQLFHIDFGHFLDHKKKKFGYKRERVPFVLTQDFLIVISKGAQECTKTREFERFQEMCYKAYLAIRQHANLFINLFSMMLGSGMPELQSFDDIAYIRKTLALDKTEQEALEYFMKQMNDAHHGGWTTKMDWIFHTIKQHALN
Sequence of PI3K-alpha (P27986 whole entry partner, species assumed, the tested form may be a part, canonical isoform): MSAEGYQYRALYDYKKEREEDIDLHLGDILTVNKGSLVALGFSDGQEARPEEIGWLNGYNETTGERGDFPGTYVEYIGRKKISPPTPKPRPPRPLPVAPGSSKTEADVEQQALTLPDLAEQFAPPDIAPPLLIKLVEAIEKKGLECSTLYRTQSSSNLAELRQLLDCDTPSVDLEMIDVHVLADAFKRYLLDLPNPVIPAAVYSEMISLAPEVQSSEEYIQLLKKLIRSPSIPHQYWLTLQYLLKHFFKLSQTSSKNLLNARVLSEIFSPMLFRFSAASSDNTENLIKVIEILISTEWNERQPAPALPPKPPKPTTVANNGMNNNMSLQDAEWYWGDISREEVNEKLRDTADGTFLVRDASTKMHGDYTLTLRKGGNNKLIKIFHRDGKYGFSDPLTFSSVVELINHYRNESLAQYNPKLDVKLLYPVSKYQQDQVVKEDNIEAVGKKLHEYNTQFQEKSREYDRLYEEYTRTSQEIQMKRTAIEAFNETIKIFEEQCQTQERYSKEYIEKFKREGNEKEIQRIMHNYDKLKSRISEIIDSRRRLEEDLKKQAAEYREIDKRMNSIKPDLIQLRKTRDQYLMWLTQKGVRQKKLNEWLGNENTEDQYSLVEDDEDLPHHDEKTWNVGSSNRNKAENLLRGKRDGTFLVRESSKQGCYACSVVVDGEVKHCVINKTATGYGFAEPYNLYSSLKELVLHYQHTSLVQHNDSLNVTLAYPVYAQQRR
Sequence of PI3K-delta (O00329 whole entry, species assumed): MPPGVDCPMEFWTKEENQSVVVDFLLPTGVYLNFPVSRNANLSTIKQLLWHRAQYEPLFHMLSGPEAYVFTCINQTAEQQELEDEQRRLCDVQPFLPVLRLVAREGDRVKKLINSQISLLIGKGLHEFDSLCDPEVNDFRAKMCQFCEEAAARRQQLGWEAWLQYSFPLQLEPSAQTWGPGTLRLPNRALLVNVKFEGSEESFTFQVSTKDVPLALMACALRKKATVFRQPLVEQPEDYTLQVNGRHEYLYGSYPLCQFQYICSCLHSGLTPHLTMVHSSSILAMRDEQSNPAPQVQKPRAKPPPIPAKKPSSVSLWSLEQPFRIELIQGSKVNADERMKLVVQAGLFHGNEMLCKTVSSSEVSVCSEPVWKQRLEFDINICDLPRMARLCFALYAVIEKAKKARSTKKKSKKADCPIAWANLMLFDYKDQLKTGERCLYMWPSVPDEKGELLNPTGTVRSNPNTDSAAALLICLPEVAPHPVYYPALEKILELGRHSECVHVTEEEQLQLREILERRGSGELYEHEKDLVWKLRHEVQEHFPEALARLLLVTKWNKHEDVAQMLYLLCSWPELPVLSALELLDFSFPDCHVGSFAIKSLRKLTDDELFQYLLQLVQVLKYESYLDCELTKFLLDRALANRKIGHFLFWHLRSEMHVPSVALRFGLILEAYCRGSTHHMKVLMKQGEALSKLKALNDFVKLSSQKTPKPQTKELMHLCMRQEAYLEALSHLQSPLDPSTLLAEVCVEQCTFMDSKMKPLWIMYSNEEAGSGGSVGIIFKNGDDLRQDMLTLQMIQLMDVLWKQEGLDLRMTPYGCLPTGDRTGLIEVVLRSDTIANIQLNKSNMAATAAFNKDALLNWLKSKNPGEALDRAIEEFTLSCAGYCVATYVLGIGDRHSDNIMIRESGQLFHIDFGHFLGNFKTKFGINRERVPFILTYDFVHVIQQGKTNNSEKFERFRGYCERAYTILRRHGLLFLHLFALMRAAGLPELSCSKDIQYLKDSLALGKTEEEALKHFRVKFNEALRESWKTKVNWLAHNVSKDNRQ
Sequence of PI3K-delta (P27986 whole entry partner, species assumed): as the sequence (P27986 whole entry partner, species assumed, the tested form may be a part, canonical isoform) above
Sequence of PI3K-beta (P42338 whole entry, species assumed): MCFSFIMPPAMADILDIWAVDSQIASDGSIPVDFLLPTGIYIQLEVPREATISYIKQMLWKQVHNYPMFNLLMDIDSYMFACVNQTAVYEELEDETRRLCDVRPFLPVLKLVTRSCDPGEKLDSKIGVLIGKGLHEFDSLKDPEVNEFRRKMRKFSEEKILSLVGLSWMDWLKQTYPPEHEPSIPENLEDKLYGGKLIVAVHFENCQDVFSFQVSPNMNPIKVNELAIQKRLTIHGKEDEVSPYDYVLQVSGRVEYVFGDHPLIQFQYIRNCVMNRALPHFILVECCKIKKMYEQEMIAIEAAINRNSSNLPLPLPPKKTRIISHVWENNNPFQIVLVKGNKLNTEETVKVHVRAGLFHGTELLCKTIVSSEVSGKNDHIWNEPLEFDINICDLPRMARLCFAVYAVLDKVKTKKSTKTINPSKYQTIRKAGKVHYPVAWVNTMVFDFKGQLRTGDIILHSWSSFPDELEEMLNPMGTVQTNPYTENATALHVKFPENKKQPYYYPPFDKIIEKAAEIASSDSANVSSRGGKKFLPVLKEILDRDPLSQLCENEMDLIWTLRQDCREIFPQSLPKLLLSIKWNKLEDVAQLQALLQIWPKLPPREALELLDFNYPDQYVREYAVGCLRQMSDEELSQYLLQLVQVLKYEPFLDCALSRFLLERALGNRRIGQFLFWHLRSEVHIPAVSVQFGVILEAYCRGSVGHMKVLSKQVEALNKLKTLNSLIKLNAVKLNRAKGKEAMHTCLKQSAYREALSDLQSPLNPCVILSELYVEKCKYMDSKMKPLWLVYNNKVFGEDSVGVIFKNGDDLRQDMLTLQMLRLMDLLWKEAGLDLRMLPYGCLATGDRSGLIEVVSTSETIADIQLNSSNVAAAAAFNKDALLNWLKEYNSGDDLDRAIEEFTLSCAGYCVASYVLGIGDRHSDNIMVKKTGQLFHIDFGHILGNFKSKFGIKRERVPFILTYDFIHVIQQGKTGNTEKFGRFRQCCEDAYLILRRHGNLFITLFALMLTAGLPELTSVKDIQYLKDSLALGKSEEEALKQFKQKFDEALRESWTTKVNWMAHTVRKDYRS
Sequence of PI3K-beta (P27986 whole entry partner, species assumed): as the sequence (P27986 whole entry partner, species assumed, the tested form may be a part, canonical isoform) above

With `COc1ccc2c(c1)c(/C=C1\Oc3cc(O)cc(O)c3C1=O)c(-c1cnn(C)c1)n2CCN1CCN(C)CC1` [Example 341, (2Z)-4,6-Dihydroxy-2-({5-methoxy-1-[2-(4-methylpiperazin-1-yl)ethyl]-2-(1-methyl-1H-pyrazol-4-yl)-1H-indol-3-yl}methylene)-1-benzofuran-3(2H)-one], the IC50 at PI3K-alpha came out at 1.7 nM; at PI3K-gamma, 22.8 nM; at human TOR, 10.8 nM; at PI3K-beta it was 7.1 nM; on PI3K-delta, 0.8 nM.

For `COc1ccc2c(c1)c(/C=C1\Oc3cc(O)cc(O)c3C1=O)c(C1CC1)n2CCN1CCC(O)C1` (stereo not shown) [Example 342, (2Z)-2-({2-Cyclopropyl-1-[2-(3-hydroxypyrrolidin-1-yl)ethyl]-5-methoxy-1H-indol-3-yl}methylene)-4,6-dihydroxy-1-benzofuran-3(2H)-one], the IC50 at PI3K-alpha was found to be 4.3 nM; against PI3K-gamma, 32.5 nM; at human TOR, 6.7 nM; on PI3K-beta, 16.3 nM; at PI3K-delta it was 1.5 nM.

Regarding `COc1ccc2c(c1)c(/C=C1\Oc3cc(O)cc(O)c3C1=O)c(C(=O)N(C)C)n2CCCN(C)C` [Example 343, 3-[(Z)-(4,6-Dihydroxy-3-oxo-1-benzofuran-2(3H)-ylidene)methyl]-1-[3-(dimethylamino)propyl]-5-methoxy-N,N-dimethyl-1H-indole-2-carboxamide], the IC50 is 12 nM on PI3K-alpha; 292 nM against PI3K-gamma; greater than 160 nM at human TOR; 71 nM on PI3K-beta; 2.5 nM on PI3K-delta.

For `COc1ccc2c(c1)c(/C=C1\Oc3cc(O)cc(O)c3C1=O)c(-c1c(C)noc1C)n2CCN1CCN(C)CC1` [Example 344, (2Z)-2-({2-(3,5-Dimethylisoxazol-4-yl)-5-methoxy-1-[2-(4-methylpiperazin-1-yl)ethyl]-1H-indol-3-yl}methylene)-4,6-dihydroxy-1-benzofuran-3(2H)-one], the IC50 was determined as 4.4 nM at PI3K-alpha; 99 nM against PI3K-gamma; 5.25 nM on human TOR; 5.9 nM on PI3K-beta; 0.9 nM at PI3K-delta.

For `COc1ccc2c(c1)c(/C=C1\Oc3cc(O)ccc3C1=O)c(C(=O)N(C)C)n2CCCN(C)C` [Example 345, 1-[3-(Dimethylamino)propyl]-3-[(Z)-(6-hydroxy-3-oxo-1-benzofuran-2(3H)-ylidene)methyl]-5-methoxy-N,N-dimethyl-1H-indole-2-carboxamide], the half-maximal inhibitory concentration (IC50) was 24 nM at PI3K-alpha; 692 nM at PI3K-gamma; greater than 4000 nM on human TOR; 100 nM at PI3K-beta; 2 nM at PI3K-delta.

In the case of `COc1ccc2[nH]c(CN3CCN(C)CC3)c(/C=C3\Oc4cc(O)cc(O)c4C3=O)c2c1` [Example 346, (2Z)-4,6-Dihydroxy-2-({5-methoxy-2-[(4-methylpiperazin-1-yl)methyl]-1H-indol-3-yl}methylene)-1-benzofuran-3(2H)-one], the IC50 at PI3K-alpha came out at 6.1 nM; against PI3K-gamma it was 55 nM; at human TOR, 77 nM; at PI3K-beta it was 7.7 nM; on PI3K-delta, 3 nM.

In the case of `COc1ccc2c(c1)c(/C=C1\Oc3cc(O)cc(O)c3C1=O)c(C(=O)N(C)C)n2CCO` [Example 348, 3-[(Z)-(4,6-Dihydroxy-3-oxo-1-benzofuran-2(3H)-ylidene)methyl]-1-(2-hydroxyethyl)-5-methoxy-N,N-dimethyl-1H-indole-2-carboxamide], the IC50 at PI3K-alpha came to 11.5 nM; on PI3K-gamma, 60.5 nM; on human TOR, 17.5 nM; at PI3K-beta, 76.5 nM; at PI3K-delta it was 12.5 nM.

With `COc1ccc2c(c1)c(/C=C1\Oc3cc(O)c(Br)cc3C1=O)c(C)n2CCN1CCN(C)CC1` [Example 349, (2Z)-5-Bromo-6-hydroxy-2-({5-methoxy-2-methyl-1-[2-(4-methylpiperazin-1-yl)ethyl]-1H-indol-3-yl}methylene)-1-benzofuran-3(2H)-one], the IC50 is 82.5 nM at PI3K-alpha; 5590 nM against PI3K-gamma; greater than 20000 nM at human TOR; 931 nM on PI3K-beta; 19 nM on PI3K-delta.

With `COc1ccc2c(c1)c(/C=C1\Oc3cc(O)c(F)cc3C1=O)c(C)n2CCN1CCN(C)CC1` [Example 351, (2Z)-5-Fluoro-6-hydroxy-2-({5-methoxy-2-methyl-1-[2-(4-methylpiperazin-1-yl)ethyl]-1H-indol-3-yl}methylene)-1-benzofuran-3(2H)-one], the IC50 is 66 nM on PI3K-alpha; 3270 nM against PI3K-gamma; greater than 800 nM at human TOR; 505 nM on PI3K-beta; 9 nM at PI3K-delta.

As to `COc1ccc2[nH]c(CN(C)C)c(/C=C3\Oc4cc(O)cc(O)c4C3=O)c2c1` [Example 353, (2Z)-2-({2-[(Dimethylamino)methyl]-5-methoxy-1H-indol-3-yl}methylene)-4,6-dihydroxy-1-benzofuran-3(2H)-one], the IC50 on PI3K-alpha is 4 nM; on PI3K-gamma, 38 nM; at human TOR, 22 nM; at PI3K-beta, 8 nM; on PI3K-delta, 2 nM.

As to `COc1ccc2[nH]c(-c3cncnc3)c(/C=C3\Oc4cc(O)cc(O)c4C3=O)c2c1` [Example 354, (2Z)-4,6-Dihydroxy-2-[(5-methoxy-2-pyrimidin-5-yl-1H-indol-3-yl)methylene]-1-benzofuran-3(2H)-one], the IC50 came to 6.5 nM on PI3K-alpha; 55 nM against PI3K-gamma; 18 nM at human TOR; 44 nM on PI3K-beta; 14.5 nM on PI3K-delta.

Regarding `COc1ccc2c(c1)c(/C=C1\Oc3cc(O)ccc3C1=O)c(C1CC1)n2CCn1cccn1` [Example 355, (2Z)-2-({2-Cyclopropyl-5-methoxy-1-[2-(1H-pyrazol-1-yl)ethyl]-1H-indol-3-yl}methylene)-6-hydroxy-1-benzofuran-3(2H)-one], the 50% inhibitory concentration (IC50) on PI3K-alpha turned out to be 8.6 nM; against PI3K-gamma it was 36 nM; on human TOR, 13 nM; at PI3K-beta, 17 nM; on PI3K-delta, 2.5 nM.

Consider `COc1ccc2c(c1)c(/C=C1\Oc3cc(O)ccc3C1=O)c(C)n2CCCN1CCCC1` [Example 356, (2Z)-6-Hydroxy-2-{[5-methoxy-2-methyl-1-(3-pyrrolidin-1-ylpropyl)-1H-indol-3-yl]methylene}-1-benzofuran-3(2H)-one], for which the IC50 at PI3K-alpha was 15.5 nM; on PI3K-gamma, 408 nM; on human TOR, greater than 800 nM; on PI3K-beta, 116 nM; on PI3K-delta, 1.2 nM.

Take `COc1ccc2c(c1)c(/C=C1\Oc3cc(O)ccc3C1=O)c(C)n2CCCN1CCCCC1` [Example 357, (2Z)-6-Hydroxy-2-{[5-methoxy-2-methyl-1-(3-piperidin-1-ylpropyl)-1H-indol-3-yl]methylene}-1-benzofuran-3(2H)-one]: the IC50 at PI3K-alpha is 11 nM; against PI3K-gamma, 322 nM; on human TOR, greater than 800 nM; at PI3K-beta, 98.5 nM; at PI3K-delta, less than 1 nM.

As for `COc1ccc2c(c1)c(/C=C1\Oc3cc(O)ccc3C1=O)c(C)n2CCCN1CCCCCC1` [Example 358, (2Z)-2-{[1-(3-Azepan-1-ylpropyl)-5-methoxy-2-methyl-1H-indol-3-yl]methylene}-6-hydroxy-1-benzofuran-3(2H)-one], the IC50 on PI3K-alpha was 7.5 nM; against PI3K-gamma, 239 nM; on human TOR it was greater than 800 nM; at PI3K-beta, 95.5 nM; on PI3K-delta, less than 1 nM.

Regarding `COc1ccc2c(c1)c(/C=C1\Oc3cc(O)cc(F)c3C1=O)c(C)n2CCN1CCN(C)CC1` [Example 359, (2Z)-4-Fluoro-6-hydroxy-2-({5-methoxy-2-methyl-1-[2-(4-methylpiperazin-1-yl)ethyl]-1H-indol-3-yl}methylene)-1-benzofuran-3(2H)-one], the IC50 on PI3K-alpha was 11 nM; at PI3K-gamma, 232 nM; at human TOR, greater than 800 nM; on PI3K-beta, 18.5 nM; at PI3K-delta, 1.5 nM.

Take `COc1ccc2[nH]c(-c3c(C)noc3C)c(/C=C3\Oc4cc(O)cc(O)c4C3=O)c2c1` [Example 360, (2Z)-2-{[2-(3,5-Dimethylisoxazol-4-yl)-5-methoxy-1H-indol-3-yl]methylene}-4,6-dihydroxy-1-benzofuran-3(2H)-one]: the IC50 on PI3K-alpha was found to be 1.5 nM; against PI3K-gamma, 3.2 nM; at human TOR, 1.25 nM; at PI3K-beta, 1.3 nM; on PI3K-delta it was 0.3 nM.

Turning to `COc1ccc2c(c1)c(/C=C1\Oc3cc(O)ccc3C1=O)c(C1CC1)n2CCN1CCN(C)CC1` [Example 362, (2Z)-2-({2-Cyclopropyl-5-methoxy-1-[2-(4-methylpiperazin-1-yl)ethyl]-1H-indol-3-yl}methylene)-6-hydroxy-1-benzofuran-3(2H)-one], the IC50 at PI3K-alpha is 10.5 nM; on PI3K-gamma, 329 nM; on human TOR, 210 nM; on PI3K-beta, 8 nM; on PI3K-delta, 1.5 nM.

For `COc1ccc(-c2cccc3c2c(/C=C2\Oc4cc(O)cc(O)c4C2=O)cn3C)cc1` [Example 376, (2Z)-4,6-dihydroxy-2-{[4-(4-methoxyphenyl)-1-methyl-1H-indol-3-yl]methylene}benzofuran-3(2H)-one], the melting point was 289 to 291 °C (dec.). Further, the IC50 at PI3K-alpha came to 2080 nM. Also, on PI3K-gamma, the IC50 worked out at 3800 nM. Further, the IC50 at human TOR was found to be 128 nM.
